In US20040053915A1, “Use of stimulators of soluble guanylate cyclase for treating osteoporosis” (priority 2000, published 2004):

System: rats of the strain HsdCpb:Wu
Test: Increased bone formation in rats after 4 weeks of once-daily administration via stomach tube
Type: in vivo
Details: once per day via stomach tube, male and female rats, all test animals
Procedure: For a period of 4 weeks, one of the two compounds listed in Table 1 was administered, in each case in one of the concentrations given in Table 1, once per day via a stomach tube to 10 male and 10 female rats of the strain HsdCpb:Wu. […] Pathological endosteal or periosteal changes were not noticed.

| Compound | bone formation in the area of the spongioid bone proximally and distally to the epiphyseal arcus of the great tubular bones (50 mg/kg or more) | bone formation in the area of the spongioid bone proximally and distally to the epiphyseal arcus of the great tubular bones (5 mg/kg or more) |
| --- | --- | --- |
| Nc1nc(-c2nn(Cc3ccccc3F)c3ncccc23)ncc1C1CC1 [Compound 1] | increased bone formation | – |
| Nc1nc(-c2nn(Cc3ccccc3F)c3ncccc23)nc(N)c1N1CCOCC1 [Compound 2] | – | increased bone formation |
